This assay addresses L-type calcium channel (Cavia porcellus). The assay can be described thus: Displacement of [3H]diltiazem from L-type calcium channel of guinea pig striated muscle. In general terms: Displacement assays read how much labelled ligand stays bound in the presence of the test substance.

In general, Ki refers to a measure of affinity in units of concentration, obtained from inhibition or displacement. Regarding `COc1ccc([C@@H]2Sc3ccccc3N(CCN(C)C)C(=O)[C@@H]2C)cc1` [(2R,3S)-5-(2-Dimethylamino-ethyl)-2-(4-methoxy-phenyl)-3-methyl-2,3-dihydro-5H-benzo[b][1,4]thiazepin-4-one], the Ki is 540 nM.
Take `COc1ccc([C@@H]2Sc3cc(OC)ccc3N(CCN(C)C)C(=O)[C@@H]2C)cc1` [(2R,3S)-5-(2-Dimethylamino-ethyl)-8-methoxy-2-(4-methoxy-phenyl)-3-methyl-2,3-dihydro-5H-benzo[b][1,4]thiazepin-4-one]: the Ki amounted to 85 nM.
On to `COc1ccc([C@@H]2Sc3cc(OC)ccc3N(CCN(C)C)C(=O)[C@@H]2OC(C)=O)cc1` [Acetic acid (2S,3S)-5-(2-dimethylamino-ethyl)-8-methoxy-2-(4-methoxy-phenyl)-4-oxo-2,3,4,5-tetrahydro-benzo[b][1,4]thiazepin-3-yl ester], for which the Ki is 42 nM.

(Values after BindingDB's records for doi:10.1016/S0960-894X(01)80767-8 (1993).)
